# Where two headings read alike, the source gives them in different places.
# What was measured:
# [1] = test system: HT-29 colon cancer; experiment: HT-29 colon cancer xenograft; assay type: in vivo, mice; settings: 200 mg/kg oral, 5-days-on/2-days-off, after 3 cycles
# [2] = test system: MV-4-11 acute myeloid leukemia; experiment: MV-4-11 acute myeloid leukemia xenograft; assay type: in vivo, mice; settings: 200 mg/kg oral, daily for 21 days
# [3] = test system: OVCAR-3 ovarian cancer; experiment: OVCAR-3 ovarian cancer xenograft; assay type: in vivo, mice; settings: daily for 35 days
# [4] = test system: NCI-H460 non-small cell lung cancer; experiment: NCI-H460 non-small cell lung cancer xenograft; assay type: in vivo, mice; settings: 200 mg/kg oral, daily for 21 days
# [5] = test system: multiple murine xenograft models; experiment: Murine xenograft models, summary across models; assay type: in vivo, mice
# [6] = Phase I clinical trial, human plasma pharmacokinetics of oral Compound 1; assay type: in vivo; settings: for AUC(0-inf) / Vd/F / AUC(0-t) / Cmax / Tmax / half-life: human, plasma, po; for Vd/F: read-out: Vz/F; for AUC(0-t): read-out: AUC(0-24)
# Method: A human clinical study was initiated at a starting dose of 50 mg/m^2. Subjects had recurrent cancer refractory to available systemic therapy. Compound 1 was administered daily by mouth in tablet form for 21 consecutive days in a 28 day cycle to each enrolled subject. […] Plasma was collected pre-dose only for cycle 1 day 8. […] Patients were men and women with metastatic cancer, ranged in age from 45 to 85 years, and received doses ranging from 50 mg/m^2 to 340 mg/m^2, with a total daily dose of 100-740 mg (Tables 2A and 2B).
# [7] = both sexes, 50 mg/m^2, Day 01, Cohort 1, 50 mg/m^2 (100 mg), oral daily
# [8] = both sexes, 100 mg/m^2, Day 01, Cohort 2, 100 mg/m^2 (160 mg), oral daily
# [9] = both sexes, 165 mg/m^2, Day 01, Cohort 3, 165 mg/m^2 (300 mg), oral daily
# [10] = both sexes, 240 mg, Day 01, Cohort 6 (BID), N = 4, 240 mg, oral twice daily
# [11] = both sexes, 240 mg, Day 21, Cohort 6 (BID), N = 2, 240 mg, oral twice daily
# [12] = both sexes, 245 mg/m^2, Day 01, Cohort 4, 245 mg/m^2 (340-540 mg), oral daily
# [13] = both sexes, 340 mg/m^2, Day 01, Cohort 5 (BID), N = 6, 340 mg/m^2 (270-370 mg), oral twice daily
# [14] = both sexes, Day 21, Cohort 4, N = 6, 176-245 mg/m^2 (340-540 mg), oral daily
# [15] = 50 mg/m^2, Day 01, Cohort 1, Subject 101, 50 mg/m^2 (100 mg), oral daily
# [16] = 50 mg/m^2, Day 19, Cohort 1, 50 mg/m^2 (100 mg), oral daily
# [17] = 50 mg/m^2, Day 19, Cohort 1, Subject 101, 50 mg/m^2 (100 mg), oral daily
structure (smiles),measurement,setting,value
"C[C@H](O)C(=O)N1CCC(CCn2c(Sc3cc4c(cc3Br)OCO4)nc3c(N)ncnc32)CC1 [Compound 1, (2S)-1-[4-(2-{6-amino-8-[(6-bromo-1,3-benzodioxol-5-yl)thio]-9H-purin-9-yl}ethyl)piperidin-1-yl]-1-oxopropan-2-ol]",TGI (tumor growth inhibition),[1],68% TGI after 3 cycles
same,tumor regression,[2],50% regression
same,TGI (tumor growth inhibition),[3]; 150 mg/kg oral,84%
same,TGI (tumor growth inhibition),[3]; 200 mg/kg oral,97%
same,"time to tumor volume 1,500 mm^3",[4]; p = 0.006,extended
same,TGI (tumor growth inhibition),[4]; p = 0.05,61%
same,"treated mice with tumors <1,500 mm^3",[4]; compared to 1/10 for vehicle arm,4/8 treated mice have tumors
same,"tumor regression, maximum over models","[5]; 200 mg/kg oral, various xenograft models",up to 50%
same,weight loss of animals,[5]; xenografted mice dosed orally with Compound 1,no significant weight loss
same,CL/F,"[6]; Day 01, Cohort 1, 50 mg/m^2 (100 mg), oral daily",4098 mL/h
same,CL/F,"[6]; Day 01, Cohort 2, 100 mg/m^2 (160 mg), oral daily",4343 mL/h
same,CL/F,"[6]; Day 01, Cohort 3, 165 mg/m^2 (300 mg), oral daily",2405 mL/h
same,CL/F,"[6]; Day 01, Cohort 4, 245 mg/m^2 (340-540 mg), oral daily",3118 mL/h
same,CL/F,"[6]; Day 01, Cohort 5 (BID), 340 mg/m^2 (270-370 mg), oral twice daily",2517 mL/h
same,CL/F,"[6]; Day 01, Cohort 5, 340 mg/m^2 (480-620 mg), oral daily",2500 mL/h
same,CL/F,"[6]; Day 01, Cohort 6 (BID), 240 mg, oral twice daily",5956 mL/h
same,CL/F,"[6]; Day 19, Cohort 1, 50 mg/m^2 (100 mg), oral daily",4547 mL/h
same,CL/F,"[6]; Day 21, Cohort 2, 100 mg/m^2 (160 mg), oral daily",3213 mL/h
same,CL/F,"[6]; Day 21, Cohort 3, 165 mg/m^2 (300 mg), oral daily",1502 mL/h
same,CL/F,"[6]; Day 21, Cohort 4, 176-245 mg/m^2 (340-540 mg), oral daily",3509 mL/h
same,CL/F,"[6]; Day 21, Cohort 5 (BID), 340 mg/m^2 (330 mg), oral twice daily",4746 mL/h
same,CL/F,"[6]; Day 21, Cohort 5, 340 mg/m^2 (620 mg), oral daily",1323 mL/h
same,CL/F,"[6]; Day 21, Cohort 6 (BID), 240 mg, oral twice daily",4003 mL/h
same,AUC(0-inf),[6]; [7],24400 ng·h/mL
same,Vd/F,[6]; [7],50.5 L
same,AUC(0-inf),[6]; [8],36800 ng·h/mL
same,AUC(0-t),[6]; [8],29900 ng·h/mL
same,Vd/F,[6]; [8],61.6 L
same,AUC(0-inf),[6]; [9],125000 ng·h/mL
same,AUC(0-t),[6]; [9],91800 ng·h/mL
same,Vd/F,[6]; [9],40 L
same,Cmax,[6]; [10],6250 ng/mL
same,Tmax,[6]; [10],1 h
same,half-life,[6]; [10],5.5 h
same,Cmax,[6]; [11],9200 ng/mL
same,Tmax,[6]; [11],1.5 h
same,half-life,[6]; [11],6.2 h
same,AUC(0-inf),[6]; [12],143000 ng·h/mL
same,AUC(0-t),[6]; [12],99100 ng·h/mL
same,Vd/F,[6]; [12],61.4 L
same,Cmax,[6]; [13],8120 ng/mL
same,Tmax,[6]; [13],2 h
same,half-life,[6]; [13],7.5 h
same,Cmax,[6]; [14],9270 ng/mL
same,Tmax,[6]; [14],2 h
same,half-life,[6]; [14],13.2 h
same,oral bioavailability,[6]; human cancer patients,orally bioavailable
same,increase in drug levels with increasing dose,"[6]; human patients, oral tablets",more-than-proportional increase
same,AUC(0-t),"[6]; 50 mg/m^2, Day 01, Cohort 1, 50 mg/m^2 (100 mg), oral daily",20600 ng·h/mL
same,Cmax,[6]; [15],1900 ng/mL
same,Tmax,[6]; [15],2 h
same,half-life,[6]; [15],8.5 h
same,AUC(0-inf),[6]; [16],30800 ng·h/mL
same,AUC(0-t),[6]; [16],22000 ng·h/mL
same,Vd/F,[6]; [16],88 L
same,Cmax,[6]; [17],1700 ng/mL
same,Tmax,[6]; [17],1 h
same,half-life,[6]; [17],13.4 h
same,Cmax,"[6]; 100 mg/m^2, Day 01, Cohort 2, Subject 201, 100 mg/m^2 (160 mg), oral daily",2950 ng/mL
